Patent US20250221413A1, “Use and Preparation Method of Sulfoxamyl, and Oxidation System” (priority 2023, published 2025)
“And” between values parts separate entries of the source, which are not always exact repeats. Equal values may be shown once.

Experiments:
[1] = test system: SD rats; assay: Acute oral toxicity test, single oral fixed-dose procedure; type: in vivo
Method: Materials: the test agent 98% sulfoxamyl technical, batch number 20230708-1, was provided by Ningxia Hugerise Chemical Co., Ltd. Experimental animals: SPF-grade SD rats, half male and half female, weighing 180 g to 220 g, were provided by Jinan Pengyue Experimental Animal Breeding Co., Ltd., license number SCXK (Lu) 20190003. Rearing environment: the rats were housed in an SPF-grade animal room with free access to water and food, a temperature of 20° C. to 25° C., a humidity of 40% to 60%, and a 12 h/12 h light cycle. Feed: conventional pellet feed was provided by Jinan Pengyue Experimental Animal Breeding Co., Ltd.
The test was conducted in accordance with “Toxicological test methods of pesticides for registration, GB15670.5-2017”, “Acute toxicity test, GB15193.3-2003” and relevant acute toxicity research data.
Methods: a single oral fixed-dose procedure was conducted to preliminarily explore the toxic dose range of sulfoxamyl. LD50 and confidence limits were calculated by using the probability unit method (Bliss method). SD rats were randomly divided into 5 groups, 10 rats in each group, half of them were male and half were female. […] The common ratio value among each dose group was 0.75. After a single oral administration, the mortality rate of the experimental animals was recorded within 24 h and 14 days after administration, while the general condition of the animals was observed, and the food intake and body weight changes were recorded.

[2] = test system: Meloidogyne incognita; assay: Indoor toxicity test against Meloidogyne incognita second-instar larvae (J2)
Method: Materials: the tested nematodes were collected from three different areas, namely cucumber crops in Dawenkou Town, Tai'an City, Shandong Province, and were all identified as southern root-knot nematodes (Meloidogyne incognita). The diseased roots were washed, cut into small sections of 0.5 cm to 1 cm, rinsed in 1% NaClO solution for about 30 s to 60 s, and rinsed with 200-mesh and 500-mesh sieves to collect nematode eggs for later use. The collected eggs were incubated at 25° C. using the Bayman funnel method and the second-instar larvae were collected 1 time per 24 h to ensure that the second-instar larvae selected each time were fresh and of consistent vitality.
The agent was 98% sulfoxamyl technical, and the comparison agents were 96% oxamyl technical and 87% fosthiazate technical.
The preparation for the agent was in accordance with the provisions for preparation of the liquid medicine in the Agricultural Industry Standard of the People's Republic of China NYT 1833.1-2009 “Guideline for laboratory bioassay of pesticides”, as shown in Table 6.
Methods: according to the experimental plan, the test agent was diluted to different mass concentrations, and 0.5 mL of the agent solution and 0.5 mL of the nematode solution (containing about 100 nematodes) were added into a 24-well cell culture plate. The treatment with each concentration of the agent was repeated 4 times, and auxiliary agent control and blank control were also conducted. […]

With `CNC(=O)O/N=C(/C(=O)N(C)C)S(C)(=O)=O` [Sulfoxamyl, N,N-dimethyl-2-[[[(methylamino)carbonyl]oxy]imino]-2-(methylsulfonyl)acetamide] as the compound, how does the Main clinical symptom ([1]; single oral dose 50 mg/kg) read?
Its Main clinical symptom is “Asymptomatic”.

What about the Death count ([1]; single oral dose 50 mg/kg, 50 mg/kg) of the same compound?
The Death count was 0/6.

And the Death count ([1]; single oral dose 50 mg/kg, listed as sulfoxamyl, 50 mg/kg)?
The Death count was “no animals die”.

And the Main clinical symptom ([1]; single oral dose 500 mg/kg)?
The Main clinical symptom was “Some rats with intense abdominal breathing,”.

What about the Death count ([1]; single oral dose 500 mg/kg, 500 mg/kg) of the same compound?
Its Death count is 0/6.

And the Death count ([1]; single oral dose 500 mg/kg, listed as sulfoxamyl, 500 mg/kg)?
The Death count was “no animals die”.

And the Main clinical symptom ([1]; single oral dose 1000 mg/kg)?
The Main clinical symptom was “Intense abdominal breathing,”.

What about the Death count ([1]; single oral dose 1000 mg/kg, 1000 mg/kg) of the same compound?
Its Death count is 8/10.

And the Death count ([1]; single oral dose 1000 mg/kg, listed as sulfoxamyl, 1000 mg/kg)?
Its Death count is 8.

And the Main clinical symptom ([1]; single oral dose 2000 mg/kg)?
The Main clinical symptom was “Intense abdominal breathing,”.

And the Death count ([1]; single oral dose 2000 mg/kg, 2000 mg/kg)?
The Death count was 6/6.

And the Death count ([1]; single oral dose 2000 mg/kg, listed as sulfoxamyl, 2000 mg/kg)?
Its Death count is “all animals”.

What about the Corrected mortality ([2]; 3.1 mg/L, 24 h) of the same compound?
The Corrected mortality was 16.24% and 26.66% and 16.93%.

And the Mortality ([2]; 3.1 mg/L, 24 h)?
The Mortality was 17.27% and 27.56% and 17.95%.

What about the Corrected mortality ([2]; 3.1 mg/L, 48 h) of the same compound?
Its Corrected mortality is 26.21% and 30.50% and 18.49%.

What about the Death count ([2]; 3.1 mg/L, 48 h) of the same compound?
The Death count was 21 and 30 and 40 and 23.

And the Mortality ([2]; 3.1 mg/L, 48 h)?
Its Mortality is 27.27% and 31.50% and 19.66%.

What about the Corrected mortality ([2]; 3.1 mg/L, 72 h) of the same compound?
Its Corrected mortality is 36.09% and 39.84% and 31.21%.

And the Death count ([2]; 3.1 mg/L, 72 h)?
The Death count was 39 and 41 and 52 and 38.

What about the Mortality ([2]; 3.1 mg/L, 72 h) of the same compound?
Its Mortality is 37.27% and 40.94% and 32.48%.

And the Corrected mortality ([2]; 6.25 mg/L, 24 h)?
Its Corrected mortality is 22.19% and 15.49% and 28.36%.

And the Death count ([2]; 6.25 mg/L, 24 h)?
Its Death count is 19 and 25 and 20 and 31.

What about the Mortality ([2]; 6.25 mg/L, 24 h) of the same compound?
The Mortality was 23.15% and 16.53% and 29.25%.

And the Corrected mortality ([2]; 6.25 mg/L, 48 h)?
The Corrected mortality was 30.48% and 22.86% and 33.96%.

What about the Death count ([2]; 6.25 mg/L, 48 h) of the same compound?
Its Death count is 36 and 34 and 29 and 37.

What about the Mortality ([2]; 6.25 mg/L, 48 h) of the same compound?
Its Mortality is 31.48% and 23.97% and 34.91%.

What about the Corrected mortality ([2]; 6.25 mg/L, 72 h) of the same compound?
The Corrected mortality was 32.08% and 27.59% and 38.49%.

What about the Death count ([2]; 6.25 mg/L, 72 h) of the same compound?
Its Death count is 41 and 36 and 35 and 42.

And the Mortality ([2]; 6.25 mg/L, 72 h)?
The Mortality was 33.33% and 28.93% and 39.62%.

What about the Corrected mortality ([2]; 12.5 mg/L, 24 h) of the same compound?
Its Corrected mortality is 43.94% and 48.97% and 49.86%.

What about the Death count ([2]; 12.5 mg/L, 24 h) of the same compound?
The Death count was 56 and 54 and 62 and 53.

What about the Mortality ([2]; 12.5 mg/L, 24 h) of the same compound?
The Mortality was 44.63% and 49.60% and 50.48%.

And the Corrected mortality ([2]; 12.5 mg/L, 48 h)?
The Corrected mortality was 56.40% and 56.17% and 57.49%.

And the Death count ([2]; 12.5 mg/L, 48 h)?
The Death count was 67 and 69 and 71 and 61.

What about the Mortality ([2]; 12.5 mg/L, 48 h) of the same compound?
Its Mortality is 57.02% and 56.80% and 58.10%.

And the Corrected mortality ([2]; 12.5 mg/L, 72 h)?
The Corrected mortality was 61.27% and 67.40% and 67.01%.

What about the Death count ([2]; 12.5 mg/L, 72 h) of the same compound?
The Death count was 71 and 75 and 85.

And the Mortality ([2]; 12.5 mg/L, 72 h)?
The Mortality was 61.98% and 68.00% and 67.62%.

What about the Corrected mortality ([2]; 25 mg/L, 24 h) of the same compound?
Its Corrected mortality is 58.55% and 63.70% and 68.85%.

What about the Death count ([2]; 25 mg/L, 24 h) of the same compound?
The Death count was 78 and 75 and 68 and 90.

And the Mortality ([2]; 25 mg/L, 24 h)?
The Mortality was 59.06% and 64.15% and 69.23%.

What about the Corrected mortality ([2]; 25 mg/L, 48 h) of the same compound?
Its Corrected mortality is 63.25% and 67.46% and 68.78%.

And the Death count ([2]; 25 mg/L, 48 h)?
The Death count was 78 and 81 and 72 and 90.

What about the Mortality ([2]; 25 mg/L, 48 h) of the same compound?
The Mortality was 63.78% and 67.92% and 69.23%.

And the Corrected mortality ([2]; 25 mg/L, 72 h)?
The Corrected mortality was 74.33% and 84.62% and 68.65%.

What about the Death count ([2]; 25 mg/L, 72 h) of the same compound?
The Death count was 78 and 95 and 90.

What about the Mortality ([2]; 25 mg/L, 72 h) of the same compound?
Its Mortality is 74.80% and 84.91% and 69.23%.

What about the Corrected mortality ([2]; 50 mg/L, 24 h) of the same compound?
The Corrected mortality was 82.02%.

What about the Death count ([2]; 50 mg/L, 24 h) of the same compound?
Its Death count is 101 and 88 and 92.

What about the Mortality ([2]; 50 mg/L, 24 h) of the same compound?
Its Mortality is 82.24%.

What about the Death count ([2]; 50 mg/L, 48 h) of the same compound?
The Death count was 108 and 95 and 111 and 98.

And the Corrected mortality ([2]; 50 mg/L, 72 h)?
The Corrected mortality was 92.38%.

And the Death count ([2]; 50 mg/L, 72 h)?
Its Death count is 115 and 99 and 120 and 101.

What about the Mortality ([2]; 50 mg/L, 72 h) of the same compound?
The Mortality was 92.52%.

And the Death count ([2]; 100 mg/L, 24 h)?
The Death count was 105 and 102 and 120 and 107.

What about the Death count ([2]; 100 mg/L, 48 h) of the same compound?
The Death count was 108 and 102 and 121.
